Values of other authors in patent publication US20070128260A1, “Aqueous polymer dispersions for stabilizing actives” (priority 2005, published 2007).
Where a name gives a salt, the structure may show the parent alone. Read-outs that look alike come from different tables or passages of the source.

SMILES | water sol. (25° C.) | other results
Nc1nc(NC2CC2)c2ncn([C@H]3C=C[C@@H](CO)C3)c2n1 [Abacavir sulfate] | 77 mg/mL | 
Nc1nc2c(ncn2COCCO)c(=O)[nH]1 [Acylovir] |  | water sol. (37° C.): 2.5 mg/mL
CC(C)CN(C[C@@H](O)[C@H](Cc1ccccc1)NC(=O)O[C@H]1CCOC1)S(=O)(=O)c1ccc(N)cc1 [Amprenavir] | 0.04 mg/mL | 
Nc1ccn([C@@H]2CS[C@H](CO)O2)c(=O)n1 [Lamivudine] |  | water sol. (20° C.): 70 mg/mL
CC(=O)N[C@H]1[C@H]([C@H](O)[C@H](O)CO)OC(C(=O)O)=C[C@@H]1N=C(N)N [Zanamivir] |  | water sol. (20° C.): 18 mg/mL
Cc1cn([C@H]2C[C@H](N=[N+]=[N-])[C@@H](CO)O2)c(=O)[nH]c1=O [Zidovudine] | 20.1 mg/mL | 
CC(C)CN(C[C@@H](OP(=O)(O)O)[C@H](Cc1ccccc1)NC(=O)O[C@H]1CCOC1)S(=O)(=O)c1ccc(N)cc1 [fosamprenavir] | 0.31 mg/mL | 
CC(C)[C@H](N)C(=O)OCCOCn1cnc2c(=O)[nH]c(N)nc21 [valacyclovir] | 174 mg/mL | 
